# Like-named read-outs stand apart in the source and are kept apart here.
# Columns and labels:
# [1] = Cytotoxicity on RAW 264.7 macrophages; type: cell-based, murine; conditions: mouse, 48 h incubation, read-out: Cytotoxicity on RAW 264.7 Macrophages CC50 (µM) ± SD
# Procedure: (§1) Cytotoxicity was evaluated on RAW 264.7 macrophages that were maintained at 37 °C with 5% CO2 in Dulbecco’s Modified Eagle’s Medium (DMEM, Invitrogen, Toulouse, France) supplemented with 100 U/mL penicillin-streptomycin (Invitrogen) and 10% heat-inactivated fetal bovine serum, as previously described. Briefly, cells were plated in 96-well microplates at a density of 2 × 10^4 cells per well. After incubation for 24 h at 37 °C in 5% CO2, the medium was removed from each well and 100 µL of medium containing 2-fold serial dilutions of compounds was added to each well. After 48 h incubation at 37 °C in 5% CO2, 10 µL of 450 µM resazurin was added to each well and further incubated in the dark for 4 h. Cell viability was determined as described above. The cytotoxicity of the compounds was expressed as CC50.
# RAW 264.7 macrophages = experiment: Cytotoxicity on RAW 264.7 macrophages; type: cell-based, murine; conditions: 48 h incubation; 2880 min; read-out: Cytotoxicity on RAW 264.7 Macrophages CC50 (µM) ± SD
# Procedure: as §1
# [2] = Cytotoxicity on human fetal lung fibroblast MRC-5; conditions: human
# Procedure: (§2) Toxicity in human fetal lung fibroblast (MRC-5) cell line and primary mouse macrophages (PMM) was assessed using a previously reported assay in 96-well microtiter plates. Tamoxifen and miltefosine were included as reference drugs (Table 10).
# (§3) For MRC5SV2 or PMM cells, the assays were performed in 96-well microtiter plates, each well containing 10 µL of compound dilution and 190 µL of cell inoculum (3 × 10^4 cells/mL) as reported. Cell growth was compared to untreated controls (100% growth) and assay-media controls (0% growth). After three-day incubation, cell viability was assessed fluorometrically by adding resazurin [50 µL/well of a stock solution in phosphate buffer (50 µg/mL)], incubating for 4 h and measuring fluorescence (ex 550 nm, em 590 nm). The results are expressed as percentage reduction in cell growth as compared to untreated control wells. […] Tamoxifen was included as the reference drug.
# S. mansoni TGR [3] = target: T1, S. mansoni TGR (Schistosoma mansoni, UniProt Q962Y6); parameters: method as in PMID 17579510
# T1 construct: made in house; host or cells: E. coli
# T1 sequence (Q962Y6 1-598): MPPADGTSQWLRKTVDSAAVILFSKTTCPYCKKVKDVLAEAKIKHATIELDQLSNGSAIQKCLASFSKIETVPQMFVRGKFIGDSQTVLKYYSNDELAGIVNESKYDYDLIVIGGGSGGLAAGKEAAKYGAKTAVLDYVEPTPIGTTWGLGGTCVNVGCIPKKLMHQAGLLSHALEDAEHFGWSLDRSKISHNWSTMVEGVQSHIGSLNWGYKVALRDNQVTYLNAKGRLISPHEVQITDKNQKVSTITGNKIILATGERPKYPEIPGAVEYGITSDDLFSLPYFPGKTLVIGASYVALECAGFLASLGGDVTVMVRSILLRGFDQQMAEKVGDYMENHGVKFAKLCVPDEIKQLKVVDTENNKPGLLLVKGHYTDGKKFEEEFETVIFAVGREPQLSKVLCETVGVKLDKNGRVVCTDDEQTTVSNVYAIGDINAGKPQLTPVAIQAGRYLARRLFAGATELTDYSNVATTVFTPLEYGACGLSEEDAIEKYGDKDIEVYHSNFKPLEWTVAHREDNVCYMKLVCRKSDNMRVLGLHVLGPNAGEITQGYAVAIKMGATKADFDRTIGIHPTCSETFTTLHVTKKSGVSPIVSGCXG
# [4] = 1–2 h after oral administration; cited from earlier work
# S. mansoni TGR [5] = target: T1, S. mansoni TGR; parameters: method as in PMID 17579510; remark: listed apart in the source
# [6] = Cytotoxicity on primary mouse macrophages (PMM); conditions: mouse
# Procedure: as §2, §3
# S. mansoni TGR [7] = target: T1, S. mansoni TGR; experiment: biochemical
# Procedure: Enzymes were prepared in E. coli as described. Assays were performed at 25 °C in 0.1 M potassium phosphate (pH 7.4), 10 mM EDTA using 100 μM NADPH and 3 mM dithiobis(2-nitrobenzoic acid) (DTNB). […] The increase in A412 during the first 3 min was recorded upon DTNB addition. The reaction was done in triplicate.
# [8] = test system: L. infantum MHOM/MA (BE)/67 amastigotes; experiment: Anti-leishmanial activity, L. infantum amastigotes in primary peritoneal mouse macrophages; type: cell-based, Leishmania infantum
# Procedure: Anti-leishmanial activity: L. infantum MHOM/MA (BE)/67 amastigotes were collected from the spleen of an infected donor hamster and used to infect primary peritoneal mouse macrophages grown in a 96-well plate. After 2 days outgrowth, 5 × 10^5 amastigotes were added to each well and incubated for 2 h at 37 °C. The compounds were subsequently added and the plates were further incubated for 5 days at 37 °C and 5% CO2. Parasite burdens (mean number of amastigotes/macrophage) were microscopically assessed on 500 cells after Giemsa staining and expressed as a percentage of the blank controls. Miltefosine was included as reference drug. The use of laboratory rodents was carried out in accordance to all mandatory guidelines (EU directives, including the Revised Directive 2010/63/EU on the Protection of Animals used for Scientific Purposes that came into force on 1 January 2013, and the declaration of Helsinki in its latest version) and was approved by the Ethical Committee of the University of Antwerp, Belgium [UA-ECD 2011–77 (17-02-2012 and UA-ECD 2015-90].
# S. mansoni TGR [9] = target: T1, S. mansoni TGR; parameters: method as in PMID 17579510; remark: listed apart in the source
# Human TrxR [10] = conditions: 3 mM DTNB, read-out: IC50 Human TrxR, substrate DTNB, cited from earlier work
# [11] = target: human thioredoxin reductase (TrxR); parameters: method as in PMID 9685351; conditions: cited from earlier work
# Human GR = conditions: read-out: IC50 Human GR, substrate GSSG, cited from earlier work
# T. cruzi Tulahuen CL2 = experiment: Anti-Chagas activity, T. cruzi on MRC-5 cells; type: cell-based; conditions: Trypanosoma cruzi, TULAHUEN, MRC5, 168 h; amastigotes, MRC-5 host cells, 7 days; read-out: Trypanosoma cruzi IC50 (µM) ± SD
# Procedure: Anti-Chagas activity: T. cruzi Tulahuen CL2 (benznidazole-sensitive, LacZ-reporter strain) was maintained on MRC-5 cells in minimal essential medium (MEM) supplemented with […], 16.5 mM sodium hydrogen carbonate and 5% FCS. In the assay, 4 × 10^3 MRC-5 cells and 4 × 10^4 parasites were added to each well. After incubation at 37 °C for 7 days, parasite growth was assessed by adding the substrate chlorophenol red -D-galactopyranoside. The color reaction was read at 540 nm after 4 h and absorbance values were expressed as a percentage of the blank controls. Benznidazole was included as reference drug.
# Human TrxR [12] = conditions: 20 µM substrate, after 10 min enzyme-NADPH-gold complex preincubation, read-out: IC50 Human TrxR, substrate hTrxC72S, cited from earlier work
# [13] = test system: Leishmania donovani LV9 intramacrophage amastigotes; experiment: L. donovani LV9 intramacrophage amastigotes; type: cell-based; conditions: Leishmania donovani; read-out: Leishmania Donovani LV9 Intramacrophage Amastigotes IC50 (µm) ± SD
# Procedure: (§4) In vitro anti-leishmanial evaluation was perfomed on both axenic and intramacrophage L. donovani amastigotes as previously described. […] Briefly, compounds were distributed in 96-well plates using 2-fold dilutions in 100 µL PYG medium. A. castellanii trophozoites were added to each well at 5 × 10^4 amoeba/mL in 200 µL final volume. L. donovani axenic amastigotes were added to each well at 10^6 parasites/mL in 200 µL final volume. After 72 h incubation at 27 °C, 20 µL of 1 mM resazurin was added to each well and further incubated at 27 °C for 8 h for A. castellanii and for 24 h for L. donovani axenic amastigotes. In living cells, resazurin is reduced in resorufin. This conversion is monitored by measuring the absorbance at specific wavelengths of resorufin (570 nm) and resazurin (600 nm) using a microplate reader (Labsystems Multiskan MS, McLean, VA, USA). In this assay, the activity was expressed in IC50. Miltefosine and pentamidine were used as reference drugs. All experiments were performed in three independent experiments.
# [14] = test system: Leishmania donovani LV9 axenic amastigotes; experiment: L. donovani LV9 axenic amastigotes (resazurin); type: cell-based; conditions: Leishmania donovani; read-out: Leishmania donovani LV9 Axenic Amastigotes IC50 (µM) ± SD
# Procedure: as §4
# [15] = test system: T. b. brucei Squib-427 strain; experiment: Anti-trypanosomal activity, T. b. brucei trypomastigotes (resazurin); type: cell-based, Trypanosoma brucei brucei; conditions: Trypanosoma brucei, 72 h
# Procedure: (§5) Anti-trypanosomal activity: T. b. brucei Squib-427 strain (suramin-sensitive) and T. b. gambiense (ITMAP/1893) were cultured at 37 °C and 5% CO2 in HMI-9 medium supplemented with 10% FCS [90]. About 10^4 trypomastigotes/well were added to each well and parasite growth was assessed after 72 h at 37 °C by adding resazurin and reading at ex 550 nm, em 590 nm. Suramin was included as reference drug for T. b. brucei and pentamidine for T. b. gambiense.
# [16] = test system: Acanthamoeba castellanii ATCC 30010; experiment: Anti-acanthamoebal activity on A. castellanii trophozoites (resazurin); type: cell-based; conditions: ATCC30010, 72 h, read-out: Acanthamoeba castellanii ATCC 30010 IC50 (µM) ± SD
# Procedure: as §4
# [17] = test system: T. b. gambiense (ITMAP/1893); experiment: Anti-trypanosomal activity, T. b. gambiense trypomastigotes (resazurin); type: cell-based, Trypanosoma brucei gambiense; conditions: Trypanosoma brucei, GAMBIENSE, 72 h, read-out: T. b. gambiense IC50 (µM) ± SD
# Procedure: as §5
compound,measurement,setting,value
CC[P](CC)(CC)=[Au][S][C@@H]1O[C@H](COC(C)=O)[C@@H](OC(C)=O)[C@H](OC(C)=O)[C@H]1OC(C)=O [Auranofin],CC50 at 48 h,[1]; raw 264.7 macrophages,~4 µM
same,CC50,RAW 264.7 macrophages,4.43 ± 0.08 µM
same,CC50 at 72 h,[2]; mrc-5 cells,520 nM
same,IC50,"S. mansoni TGR [3]; read-out: IC50 S. mansoni TGR, substrate DTNB; 20 nM enzyme, 3 mM DTNB; after 15 min preincubation; cited from earlier work",7 nM
same,drug remaining in the plasma,[4],15–25%
same,plasma concentration,[4],10000 ng/mL
same,IC50,"S. mansoni TGR [5]; read-out: IC50 S. mansoni TGR, substrate HED + GSSG; 20 nM enzyme, 8 mM substrate; after 15 min preincubation; cited from earlier work",6 nM
same,CC50 at 72 h,[6]; primary macrophages,2000 nM
same,IC50,S. mansoni TGR [7],1.1 nM
same,IC50 versus CC50 in the assays with mouse macrophages,"[8]; L. infantum amastigotes, equal IC50 and CC50 values",non-specific activity
same,IC50,"S. mansoni TGR [9]; read-out: IC50 S. mansoni TGR, substrate GSSG; 20 nM enzyme, 100 µM GSSG; after 15 min preincubation; cited from earlier work",9 nM
OC[C@H]1O[C@H]([S-])[C@H](O)[C@@H](O)[C@@H]1O.[Au+] [Aurothioglucose],IC50,"Human TrxR [10]; 2 nM enzyme, steady state kinetic studies",65 nM
same,IC50,"S. mansoni TGR [3]; 20 nM enzyme, 3 mM DTNB; after 15 min preincubation; read-out: IC50 S. mansoni TGR, substrate DTNB; cited from earlier work",70 nM
same,Ki,[11],4 nM
same,IC50,"S. mansoni TGR [5]; 20 nM enzyme, 8 mM substrate; after 15 min preincubation; read-out: IC50 S. mansoni TGR, substrate HED + GSSG; cited from earlier work",400 nM
same,IC50,"Human GR; 1.5 nM enzyme, 1 mM GSSG, steady state kinetic studies",> 100000 nM
same,IC50,"S. mansoni TGR [9]; 20 nM enzyme, 100 µM GSSG; after 15 min preincubation; read-out: IC50 S. mansoni TGR, substrate GSSG; cited from earlier work",3000 nM
"O=C(Cn1ccnc1[N+](=O)[O-])NCc1ccccc1 [Benznidazole, reference compound]",IC50,T. cruzi Tulahuen CL2,2.89 ± 0.94 µM
"[Cl][Au][PH]1(c2ccccc2)C(c2ccccn2)=CC=C1c1ccccn1 [GoPI, {1-phenyl-2,5-di(2-pyridyl)phosphole}AuCl]",IC50,"Human TrxR [10]; 3.7 nM enzyme, after 10 min preincubation",1 nM
same,IC50,"Human TrxR [10]; […] enzyme, after 10 min preincubation",0.8 nM
same,IC50,"Human GR; 1.4-[…] enzyme, 100 µM GSSG, after 10 min preincubation",2 nM
same,IC50,"Human GR; […] enzyme, 100 µM GSSG, after 10 min preincubation",1 nM
same,IC50,Human TrxR [12]; 24 nM enzyme,6.9 nM
same,IC50,Human TrxR [12]; 30 nM enzyme,7 nM
CCCCCCCCCCCCCCCCOP(=O)([O-])OCC[N+](C)(C)C [Miltefosine],CC50 at 48 h,[1]; RAW 264.7 macrophages,> 25 µM
same,IC50,[13],4490 ± 1080 nM
same,CC50 at 3 days,[6],20000 nM
same,IC50,"[8]; Leishmania infantum, Macrophage, 120 h, amastigotes in primary peritoneal mouse macrophages, 5 days, read-out: Leishmania infantum IC50 (µM) ± SD",11.3 ± 2.88 µM
same,IC50,[14],1.28 ± 0.12 µM
same,IC50,[15],11400 nM
same,IC50,[16],9.21 ± 2.04 µM
N=C(N)c1ccc(OCCCCCOc2ccc(C(=N)N)cc2)cc1 [Pentamidine],CC50 at 48 h,[1]; RAW 264.7 macrophages,> 25 µM
same,IC50,[17],0.0011 ± 0.0001 µM
same,IC50,[16],1.39 ± 0.37 µM
Cc1ccc(C(=O)Nc2ccc(S(=O)(=O)O)c3cc(S(=O)(=O)O)cc(S(=O)(=O)O)c23)cc1NC(=O)c1cccc(NC(=O)Nc2cccc(C(=O)Nc3cc(C(=O)Nc4ccc(S(=O)(=O)O)c5cc(S(=O)(=O)O)cc(S(=O)(=O)O)c45)ccc3C)c2)c1 [Suramin],IC50,[15],30 nM
CC/C(=C(\c1ccccc1)c1ccc(OCCN(C)C)cc1)c1ccccc1 [Tamoxifen],CC50 at 3 days,[2],10600 nM

# From publication PMC7663263 (Molecules, 2020)
